Data taken from patent US20240383886A1, “Protein Tyrosine Phosphatase Degraders and Methods of Use Thereof” (CALICO LIFE SCIENCES LLC, priority 2019, published 2024).

Legend:
[1] = biological target: T1, PTPN2 (Homo sapiens, UniProt P17706); experiment: HiBiT-Degradation 293T.109 PTPN2 (Nano-Glo HiBiT Lytic Assay); format: cell-based; conditions: 293T.109 (HiBiT-PTPN2) cells, 24.0 hours
T1 construct: expressed in transfected cells; host or cells: 293T (293T.109 HiBiT-PTPN2 line; parental 293T WT from ATCC)
T1 sequence (P17706 1-415): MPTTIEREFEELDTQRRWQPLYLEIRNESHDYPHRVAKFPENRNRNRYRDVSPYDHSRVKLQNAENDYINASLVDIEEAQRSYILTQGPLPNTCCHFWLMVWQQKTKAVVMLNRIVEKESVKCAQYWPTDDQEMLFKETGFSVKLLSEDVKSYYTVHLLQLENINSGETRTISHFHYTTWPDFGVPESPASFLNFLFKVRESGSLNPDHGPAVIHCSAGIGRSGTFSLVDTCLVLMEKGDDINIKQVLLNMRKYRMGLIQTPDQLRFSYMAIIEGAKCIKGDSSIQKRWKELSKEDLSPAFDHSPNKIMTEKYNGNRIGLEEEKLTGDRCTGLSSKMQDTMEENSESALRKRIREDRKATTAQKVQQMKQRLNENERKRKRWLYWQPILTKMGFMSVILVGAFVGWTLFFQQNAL
Procedure, shortened: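 Luminescence from a lytic HiBiT read gave PTPN2 levels after 24 h compound exposure at 37° C. Compounds were tested at 11 half-log points from a 10 μM top concentration, in duplicate. The cells were 293T engineered with an N-terminal HiBiT–PTPN2 fusion, plated at 5000 per well, with untreated wells as negative control and no-reagent wells as positive control.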

[2] = tested on: PTPN2; experiment: HiBiT-Degradation B16F10.4 PTPN2; format: cell-based; conditions: B16F10.4 cells, 24.0 hours

In the case of Cn1c(=O)n(C2CCC(=O)NC2=O)c2ccc(-c3ccc(NCC(C)(C)CCOc4ccc5cc(O)c(N6CC(=O)NS6(=O)=O)c(F)c5c4)cc3)cc21 (stereo not drawn) [Example 151, 3-[5-[4-[[4-[[8-fluoro-6-hydroxy-7-(1,1,4-trioxo-1,2,5-thiadiazolidin-2-yl)-2-naphthyl]oxy]-2,2-dimethyl-butyl]amino]phenyl]-3-methyl-2-oxo-benzimidazol-1-yl]piperidine-2,6-dione], the DC50 [1] is reported as 50 to 200 nM and the DC50 [2] is reported as ≥ 1000 nM.
In the case of Cn1nc(C2CCC(=O)NC2=O)c2ccc(C3CCN(CCn4cc(-c5ccc6c(F)c(N7CC(=O)NS7(=O)=O)c(O)cc6c5)cn4)CC3)cc21 (stereo not drawn) [Example 152, 3-[6-[1-[2-[4-[5-fluoro-7-hydroxy-6-(1,1,4-trioxo-1,2,5-thiadiazolidin-2-yl)-2-naphthyl]pyrazol-1-yl]ethyl]-4-piperidyl]-1-methyl-indazol-3-yl]piperidine-2,6-dione], the DC50 [1] is reported as 10 to 50 nM and the DC50 [2] is reported as 200 to 1000 nM.
Cn1c(=O)n(C2CCC(=O)NC2=O)c2ccc(-c3ccc(CNCC(C)(C)CCOc4ccc5cc(O)c(N6CC(=O)NS6(=O)=O)c(F)c5c4)cc3)cc21 (stereo not drawn) [Example 153, 3-[5-[4-[[[4-[[8-fluoro-6-hydroxy-7-(1,1,4-trioxo-1,2,5-thiadiazolidin-2-yl)-2-naphthyl]oxy]-2,2-dimethyl-butyl]amino]methyl]phenyl]-3-methyl-2-oxo-benzimidazol-1-yl]piperidine-2,6-dione] showed a DC50 [1] of 50 to 200 nM and a DC50 [2] of 200 to 1000 nM.
In the case of Cn1c(=O)n(C2CCC(=O)NC2=O)c2ccc(C3CCN(Cc4ccn(-c5ccc6c(F)c(N7CC(=O)NS7(=O)=O)c(O)cc6c5)n4)CC3)cc21 (stereo not drawn) [Example 154, 3-(5-(1-((1-(6-(1,1-dioxido-4-oxo-1,2,5-thiadiazolidin-2-yl)-5-fluoro-7-hydroxynaphthalen-2-yl)-1H-pyrazol-3-yl)methyl)piperidin-4-yl)-3-methyl-2-oxo-2,3-dihydro-1H-benzo[d]imidazol-1-yl)piperidine-2,6-dione], the DC50 [1] is reported as 200 to 1000 nM and the DC50 [2] is reported as ≥ 1000 nM.
Cn1c(=O)n(C2CCC(=O)NC2=O)c2ccc(N3CCC(O)(CC(=O)N4CC[C@@H](COc5ccc6cc(O)c(N7CC(=O)NS7(=O)=O)c(F)c6c5)C4)CC3)cc21 (stereo partly drawn) [Example 155, 3-[5-[4-[2-[(3R)-3-[[8-fluoro-6-hydroxy-7-(1,1,4-trioxo-1,2,5-thiadiazolidin-2-yl)-2-naphthyl]oxymethyl]pyrrolidin-1-yl]-2-oxo-ethyl]-4-hydroxy-1-piperidyl]-3-methyl-2-oxo-benzimidazol-1-yl]piperidine-2,6-dione] gave a DC50 [1] of 50 to 200 nM and a DC50 [2] of 200 to 1000 nM.
With Cn1c(=O)n(C2CCC(=O)NC2=O)c2ccc(C3CCN(CC(=O)N4CCN(c5ccc6cc(O)c(N7CC(=O)NS7(=O)=O)c(F)c6c5)CC4)CC3)cc21 (stereo not drawn) [Example 156, 3-[5-[1-[2-[4-[8-fluoro-6-hydroxy-7-(1,1,4-trioxo-1,2,5-thiadiazolidin-2-yl)-2-naphthyl]piperazin-1-yl]-2-oxo-ethyl]-4-piperidyl]-3-methyl-2-oxo-benzimidazol-1-yl]piperidine-2,6-dione] the DC50 [1] was 10 to 50 nM and the DC50 [2] was 200 to 1000 nM.
With Cn1c(=O)n(C2CCC(=O)NC2=O)c2ccc(C3CCN(CC(C)(C)CCOc4ccc5cc(O)c(N6CC(=O)NS6(=O)=O)c(F)c5c4)CC3)cc21 (stereo not drawn) [Example 157, 3-[5-[1-[4-[[8-fluoro-6-hydroxy-7-(1,1,4-trioxo-1,2,5-thiadiazolidin-2-yl)-2-naphthyl]oxy]-2,2-dimethyl-butyl]-4-piperidyl]-3-methyl-2-oxo-benzimidazol-1-yl]piperidine-2,6-dione] the DC50 [1] was 10 to 50 nM and the DC50 [2] was 50 to 200 nM.
O=C1CCC(N2C(=O)c3cccc4c(C5CCN(CC(=O)N6CC(Oc7ccc8cc(O)c(N9CC(=O)NS9(=O)=O)c(F)c8c7)C6)CC5)ccc2c34)C(=O)N1 (stereo not drawn) [Example 158, 3-[6-[1-[2-[3-[[8-fluoro-6-hydroxy-7-(1,1,4-trioxo-1,2,5-thiadiazolidin-2-yl)-2-naphthyl]oxy]azetidin-1-yl]-2-oxo-ethyl]-4-piperidyl]-2-oxo-benzo[cd]indol-1-yl]piperidine-2,6-dione] was tested, and the DC50 [1] was 10 to 50 nM and the DC50 [2] was 50 to 200 nM.
With Cn1c(=O)n(C2CCC(=O)NC2=O)c2ccc(N3CCN(CC(=O)Nc4ccc5c(F)c(N6CC(=O)NS6(=O)=O)c(O)cc5c4)CC3)cc21 (stereo not drawn) [Example 159, 2-[4-[1-(2,6-dioxo-3-piperidyl)-3-methyl-2-oxo-benzimidazol-5-yl]piperazin-1-yl]-N-[5-fluoro-7-hydroxy-6-(1,1,4-trioxo-1,2,5-thiadiazolidin-2-yl)-2-naphthyl]acetamide] the DC50 [1] was 50 to 200 nM and the DC50 [2] was 50 to 200 nM.
Cn1c(=O)n(C2CCC(=O)NC2=O)c2ccc(C3CN(CC(=O)Nc4ccc5c(F)c(N6CC(=O)NS6(=O)=O)c(O)cc5c4)C3)cc21 (stereo not drawn) [Example 160, 2-[3-[1-(2,6-dioxo-3-piperidyl)-3-methyl-2-oxo-benzimidazol-5-yl]azetidin-1-yl]-N-[5-fluoro-7-hydroxy-6-(1,1,4-trioxo-1,2,5-thiadiazolidin-2-yl)-2-naphthyl]acetamide] showed a DC50 [1] of 10 to 50 nM and a DC50 [2] of 200 to 1000 nM.
For Cn1c(=O)n(C2CCC(=O)NC2=O)c2ccc(C3CN(CC(=O)NCCOc4ccc5cc(O)c(N6CC(=O)NS6(=O)=O)c(F)c5c4)C3)cc21 (stereo not drawn) [Example 161, 2-[3-[1-(2,6-dioxo-3-piperidyl)-3-methyl-2-oxo-benzimidazol-5-yl]azetidin-1-yl]-N-[2-[[8-fluoro-6-hydroxy-7-(1,1,4-trioxo-1,2,5-thiadiazolidin-2-yl)-2-naphthyl]oxy]ethyl]acetamide], the DC50 [1] was 200 to 1000 nM and the DC50 [2] was 200 to 1000 nM.
For Cn1c(=O)n(C2CCC(=O)NC2=O)c2ccc(C3CCN(CC(=O)N4CC[C@@H](COc5ccc6cc(O)c(N7CC(=O)NS7(=O)=O)c(F)c6c5)C4)CC3(F)F)cc21 (stereo partly drawn) [Example 162, 3-[5-[3,3-difluoro-1-[2-[(3R)-3-[[8-fluoro-6-hydroxy-7-(1,1,4-trioxo-1,2,5-thiadiazolidin-2-yl)-2-naphthyl]oxymethyl]pyrrolidin-1-yl]-2-oxo-ethyl]-4-piperidyl]-3-methyl-2-oxo-benzimidazol-1-yl]piperidine-2,6-dione], the DC50 [1] was 10 to 50 nM and the DC50 [2] was 50 to 200 nM.
Cn1nc([C@@H]2CCC(=O)NC2=O)c2ccc(N3CCC(CC(=O)Nc4ccc5c(F)c(N6CC(=O)NS6(=O)=O)c(O)cc5c4)CC3)cc21 [Example 163, 2-[1-[3-[(3S)-2,6-dioxo-3-piperidyl]-1-methyl-indazol-6-yl]-4-piperidyl]-N-[5-fluoro-7-hydroxy-6-(1,1,4-trioxo-1,2,5-thiadiazolidin-2-yl)-2-naphthyl]acetamide] showed a DC50 [1] of 10 to 50 nM and a DC50 [2] of 10 to 50 nM.
Cn1nc([C@H]2CCC(=O)NC2=O)c2ccc(N3CCC(CC(=O)Nc4ccc5c(F)c(N6CC(=O)NS6(=O)=O)c(O)cc5c4)CC3)cc21 [Example 164, 2-[1-[3-[(3R)-2,6-dioxo-3-piperidyl]-1-methyl-indazol-6-yl]-4-piperidyl]-N-[5-fluoro-7-hydroxy-6-(1,1,4-trioxo-1,2,5-thiadiazolidin-2-yl)-2-naphthyl]acetamide] was tested, and the DC50 [1] was 10 to 50 nM and the DC50 [2] was 50 to 200 nM.
O=C1CCC(N2C(=O)c3cccc4c(C5CCN(CC(=O)N6CC(Oc7ccc8cc(O)c(N9CC(=O)NS9(=O)=O)c(F)c8c7)C6)CC5(F)F)ccc2c34)C(=O)N1 (stereo not drawn) [Example 165, 3-[6-[3,3-difluoro-1-[2-[3-[[8-fluoro-6-hydroxy-7-(1,1,4-trioxo-1,2,5-thiadiazolidin-2-yl)-2-naphthyl]oxy]azetidin-1-yl]-2-oxo-ethyl]-4-piperidyl]-2-oxo-benzo[cd]indol-1-yl]piperidine-2,6-dione] gave a DC50 [1] of 10 to 50 nM and a DC50 [2] of 50 to 200 nM.
CN(CCOc1ccc2cc(O)c(N3CC(=O)NS3(=O)=O)c(F)c2c1)C(=O)CNCCCc1ccc2c3c(cccc13)C(=O)N2C1CCC(=O)NC1=O (stereo not drawn) [Example 166, N-(2-((7-(1,1-dioxido-4-oxo-1,2,5-thiadiazolidin-2-yl)-8-fluoro-6-hydroxynaphthalen-2-yl)oxy)ethyl)-2-((3-(1-(2,6-dioxopiperidin-3-yl)-2-oxo-1,2-dihydrobenzo[cd]indol-6-yl)propyl)amino)-N-methylacetamide] showed a DC50 [1] of 50 to 200 nM and a DC50 [2] of 200 to 1000 nM.
Cn1nc(C2CCC(=O)NC2=O)c2ccc(N3CCC(CC(=O)Nc4ccc5c(F)c(N6CC(=O)NS6(=O)=O)c(O)cc5c4)CC3)cc21 (stereo not drawn) [Example 167, 2-[1-[3-(2,6-dioxo-3-piperidyl)-1-methyl-indazol-6-yl]-4-piperidyl]-N-[5-fluoro-7-hydroxy-6-(1,1,4-trioxo-1,2,5-thiadiazolidin-2-yl)-2-naphthyl]acetamide] was tested, and the DC50 [1] was 50 to 200 nM and the DC50 [2] was 50 to 200 nM.
In the case of Cn1c(=O)n(C2CCC(=O)NC2=O)c2ccc(Nc3ccc(CC(=O)Nc4ccc5c(F)c(N6CC(=O)NS6(=O)=O)c(O)cc5c4)cn3)cc21 (stereo not drawn) [Example 168, N-(6-(1,1-dioxido-4-oxo-1,2,5-thiadiazolidin-2-yl)-5-fluoro-7-hydroxynaphthalen-2-yl)-2-(6-((1-(2,6-dioxopiperidin-3-yl)-3-methyl-2-oxo-2,3-dihydro-1H-benzo[d]imidazol-5-yl)amino)pyridin-3-yl)acetamide], the DC50 [1] is reported as 50 to 200 nM and the DC50 [2] is reported as 10 to 50 nM.
